Molecules are shown by their SMILES.

This is an account of results in patent publication US20110251068A1, “PARASITIC PLANT CONTROL AGENT AND PARASITIC PLANT CONTROL METHOD” (OSAKA UNIVERSITY, priority 2008, published 2011).

Common to all, as to type: in vivo
The subject of test [1] is Orobanche minor. In words: Germination rate of Orobanche minor seeds in the presence of enzyme inhibitors (GR24-induced). Particulars: for influence on germination of Orobanche minor: applied concurrently with GR24 0.1 mg/L, observed after four days (FIG. 8); for germination rate: Orobanche minor seeds, with GR24 0.1 mg/L, four days after application (FIG. 8). The text has this: (§1) Surfaces of seeds of Orobanche minor and Striga gesnerioides were sterilized by use of an aqueous solution containing 1% SDS and 5% sodium hypochlorite. Thereafter, the seeds were washed five times by use of sterile distilled water. Subsequently, the seeds were subjected to suction filtration and then naturally dried. GF/A glass filter paper of Φ 47 mm was spread on a laboratory dish, a GF/D glass disk of 1 cm was placed on the GF/A glass filter paper, and approximately 50 grains of the seeds were sown on the GF/D glass disk. 1.5 mL of sterile water was placed in the laboratory dish, and conditioning was carried out in a dark place at 23° C. for seven days. The GF/D glass disk was taken out of the laboratory dish on the eighth day after the beginning of conditioning and then placed on new GF/A glass filter paper. 1.5 mL of a germination stimulant GR24 (0.1 mg/L) was applied to the seeds of Orobanche minor, so as to induce its germination. A root extract of cowpea (CP) was applied to the seeds of Striga gesnerioides, so as to induce its germination. Note that concurrently with GR24 or the root extract of cowpea, nojirimycin, deoxynojirimycin, or deoxygalactonojirimycin was applied to the seeds. Note that nojirimycin is a typical β-glucosidase activity inhibitor, deoxynojirimycin is a typical α-glucosidase activity inhibitor, and deoxygalactonojirimycin is a typical galactosidase activity inhibitor. Whether or not germination occurred was observed by microscopic observation four days after application of GR24 or the root extract of cowpea (CP) and the like to the seeds.

Test [2] relates to Striga gesnerioides. In words: Germination rate of Striga gesnerioides seeds in the presence of nojirimycin (induced by root extract of cowpea). Particulars: for germination rate: Striga gesnerioides seeds, rate without nojirimycin taken as 100%, cowpea root extract, four days (FIG. 10).
Excerpt: as §1

Test [3] deals with Striga gesnerioides. In words: Selective inhibition of germination: parasitic plant Striga gesnerioides. As to conditions: with root extract of cowpea, four days (FIG. 13). The text has this: (§2) It was examined whether or not germination inhibition caused by inhibition of gentianose metabolism was a selective phenomenon with respect to a parasitic plant. Note that nojirimycin was used as a typical gentianose metabolism inhibitor. Note also that Orobanche minor and Striga gesnerioides were used as typical parasitic plants and Trifolium pratense and Arabidopsis thaliana were used as typical non-parasitic plants. The following description specifically discusses how the examination was carried out. Surfaces of seeds of Orobanche minor, Striga gesnerioides, Arabidopsis thaliana, and Trifolium pratense were sterilized by use of an aqueous solution containing 1% SDS and 5% sodium hypochlorite. Thereafter, the seeds were washed five times by use of sterile distilled water. Subsequently, the seeds were subjected to suction filtration and then naturally dried. GF/A glass filter paper of Φ 47 mm was spread on a laboratory dish, a GF/D glass disk of 1 cm was placed on the GF/A glass filter paper, and approximately 50 grains of the seeds were sown on the GF/D glass disk. 1.5 mL of sterile water was placed in the laboratory dish, and conditioning was carried out in a dark place at 23° C. for seven days. The GF/D glass disk was taken out of the laboratory dish on the eighth day after the beginning of conditioning and then placed on new GF/A glass filter paper. […]

Test [4] relates to Orobanche minor. In words: Recovery of germination inhibition effect by addition of glucose. Particulars: Orobanche minor seeds, GR24 0.1 mg/L, nojirimycin with glucose 10 mM, four days (FIG. 9). Here is the method: The following description specifically discusses how the examination was carried out. Surfaces of seeds of Orobanche minor were sterilized by use of an aqueous solution containing 1% SDS and 5% sodium hypochlorite. Thereafter, the seeds were washed five times by use of sterile distilled water. Subsequently, the seeds were subjected to suction filtration and then naturally dried. GF/A glass filter paper of Φ 47 mm was spread on a laboratory dish, a GF/D glass disk of 1 cm was placed on the GF/A glass filter paper, and approximately 50 grains of the seeds were sown on the GF/D glass disk. 1.5 mL of sterile water was placed in the laboratory dish, and conditioning was carried out in a dark place at 23° C. for seven days. The GF/D glass disk was taken out of the laboratory dish on the eighth day after the beginning of conditioning and then placed on new GF/A glass filter paper. 1.5 mL of a germination stimulant GR24 (0.1 mg/L) was applied to the seeds, so as to induce its germination. Note that concurrently with GR24, nojirimycin or a mixture of nojirimycin and glucose (glucose concentration: 10 mM) was added to the seeds. Whether or not germination occurred was observed by microscopic observation four days after application of GR24 and the like to the seeds.

The next test deals with Arabidopsis thaliana. In words: Selective inhibition of germination: non-parasitic plant Arabidopsis thaliana. Particulars: only nojirimycin, no germination inducer, four days (FIG. 13).
Excerpt: as §2

Another test relates to Trifolium pratense. In words: Selective inhibition of germination: non-parasitic plant Trifolium pratense. Particulars: only nojirimycin, no germination inducer, four days (FIG. 13).
Excerpt: as §2

Test [5] has as its system Orobanche minor. In words: Selective inhibition of germination: parasitic plant Orobanche minor. Particulars: with GR24 0.1 mg/L, four days (FIG. 13).
Excerpt: as §2

As to `OC[C@H]1NC[C@H](O)[C@@H](O)[C@H]1O` [deoxygalactonojirimycin], in the test with Orobanche minor [1], the “influence on germination of Orobanche minor” value is given as “no influence on germination”.
Same read-out and setting: in the case of `OC[C@H]1NC[C@H](O)[C@@H](O)[C@@H]1O` [deoxynojirimycin] it was “no influence on germination”.
Turning to `OC[C@H]1NC(O)[C@H](O)[C@@H](O)[C@@H]1O` (some centres unmarked) [nojirimycin], the germination rate result with Orobanche minor [1] (concentration of 1 μM) is on record as “approximately 20%”; in the test on Orobanche minor [1] (concentration of 10 μM) it was “approximately 10%”; in the test with Orobanche minor [1] (concentration of not less than 25 μM), “approximately 0%”; with Striga gesnerioides [2] (1 μM), “approximately 24.3%”; with Striga gesnerioides [2] (10 μM) it was ~7.5%; in the test on Striga gesnerioides [2] (50 μM) it was ~6.2%. In addition, the germination rate with Striga gesnerioides [2] (100 μM) and with Striga gesnerioides [2] (1 mM) was ~0% throughout. Further, in the test with Orobanche minor [1], the “influence on germination of Orobanche minor” value is on record as “inhibited germination”. For the same molecule, in the test on Striga gesnerioides [2] (applied concurrently with root extract of cowpea, observed after four days (FIG. 10)), the “influence on germination of Striga gesnerioides” value is reported as “inhibited germination”. Also, the “inhibition of germination of Striga gesnerioides (parasitic plant)” value in the test on Striga gesnerioides [3] is given as “effectively inhibited germination”. Besides, the “germination recovery effect of glucose versus germination inhibition effect of nojirimycin” value in the test on Orobanche minor [4] was “recovered by glucose”. Further, in the test with Arabidopsis thaliana, the “inhibition of germination of Arabidopsis thaliana (non-parasitic plant)” value was “did not inhibit germination”. For the same molecule, in the test with Trifolium pratense, the “inhibition of germination of Trifolium pratense (non-parasitic plant)” value is “did not inhibit germination”. The “inhibition of germination of Orobanche minor (parasitic plant)” value in the test on Orobanche minor [5] is reported as “effectively inhibited germination”.
